# Measured values: US11219215B2, “Herbicidal composition comprising cinmethylin and specific inhibitors of protoporphyrinogen oxidase” (BASF Agro B.V., priority 2015, dated 2022)
# Values joined by “and” are separate entries in the source; they are usually repeats but may differ in a detail not shown here. Equal values may be shown once.
# Experiments:
# Type in all cases: in vivo
# Avena fatua = test: Greenhouse preemergence herbicidal activity, AVEFA; details: 20 DAT
# Description: (§1) The containers were irrigated gently to promote germination and growth and subsequently covered with transparent plastic hoods until the plants had rooted.
# (§2) The plants have been cultivated due to their individual requirements at 10-25° C. and 20-35° C.
# (§3) The plants were irrigated due to their necessity.
# (§4) The racemic mixture (±)-2-exo-(2-Methylbenzyloxy)-1-methyl-4-isopropyl-7-oxabicyclo[2.2.1]heptane was used as herbicide A and formulated as emulsifiable concentrates with an active ingredient concentration of 50g/I, 100 g/I or 750 g/I respectively.
# (§5) Flumioxazin (herbicide B.1) was used as a wettable powder (WP) formulation having an active ingredient concentration of 50%.
# (§6) Sulfentrazone (herbicide B.2) was used as a suspension concentrate (SC) having an active ingredient concentration of 480 g/l.
# (§7) In the following experiments, the herbicidal activity for the individual herbicidal compositions (solo and mixture applications) was assessed 20 days after treatment (DAT). […]
# (§8) The value E corresponds to the effect (plant damage or injury) which is to be expected if the activity of the individual compounds is additive. If the observed effect is higher than the value E calculated according to the Colby equation, a synergistic effect is present.
# Alopecurus myosuroides = test: Greenhouse preemergence herbicidal activity, ALOMY; details: 20 DAT
# Description: as §1, §2, §3, §4, §5, §6
# (§9) In the following experiments, the herbicidal activity for the individual herbicidal compositions (solo and mixture applications) was assessed 20 days after treatment (DAT).
# (§10) The evaluation for the damage on undesired weeds caused by the chemical compositions was carried out using a scale from 0 to 100%, compared to the untreated control plants. Here, 0 means no damage and 100 means complete destruction of the plants.
# (§11) E=X+Y−(X·Y/100) where X=effect in percent using herbicide A at an application rate a; • Y=effect in percent using herbicide B at application rate b; • E=expected effect (in %) of herbicide A+herbicide B at application rates a+b.
# as §8
# Anthemis arvensis = test: Greenhouse preemergence herbicidal activity, ANTAR; details: 20 DAT
# Description: as §1, §2, §3, §4, §5, §6, §9, §10, §11, §8
# Chenopodium album = test: Greenhouse preemergence herbicidal activity, CHEAL; details: 20 DAT
# Description: as §1, §2, §3, §4, §5, §6, §7, §8
# Galium aparine = test: Greenhouse preemergence herbicidal activity, GALAP; details: 20 DAT
# Description: as §1, §2, §3, §4, §5, §6, §9, §10, §11, §8
# Geranium dissectum [1] = test: Greenhouse preemergence herbicidal activity, GERDI; details: 20 DAT
# Description: as §1, §2, §3, §4, §5, §6, §9, §10, §11, §8
# Lolium multiflorum = test: Greenhouse preemergence herbicidal activity, LOLMU; details: 20 DAT
# Description: as §1, §2, §3, §4, §5, §6, §9, §10, §11, §8
# Polygonum convolvulus = test: Greenhouse preemergence herbicidal activity, POLCO; details: 20 DAT
# Description: as §1, §2, §3, §4, §5, §6, §9, §10, §11, §8
# Sorghum halepense = test: Greenhouse preemergence herbicidal activity, SORHA; details: 20 DAT
# Description: as §1, §2, §3, §4, §5, §6, §9, §10, §11, §8
# Abutilon theophrasti = test: Greenhouse preemergence herbicidal activity, ABUTH; details: 20 DAT
# Description: as §1, §2, §3, §4, §5, §6, §9, §10, §11, §8
# Setaria viridis [2] = test: Greenhouse preemergence herbicidal activity, SETVI; details: 20 DAT
# Description: as §1, §2, §3, §4, §5, §6, §9, §10, §11, §8
# Stellaria media = test: Greenhouse preemergence herbicidal activity, STEME; details: 20 DAT
# Description: as §1, §2, §3, §4, §5, §6, §9, §10, §11, §8
# Digitaria sanguinalis = test: Greenhouse postemergence herbicidal activity, DIGSA; details: 20 DAT
# Description: (§12) For the post emergence treatment, the plants were first grown to the 2 leaf station (GS 12). Here, the herbicidal compositions were suspended or emulsified in water as distribution medium and sprayed using finely distributing nozzles.
# as §2, §3, §4, §5, §6, §9, §10, §11, §8
# Geranium dissectum [3] = test: Greenhouse postemergence herbicidal activity, GERDI; details: herbicide A solo 62.5 g ai/ha, 20 DAT
# Description: as §12, §2, §3, §4, §5, §6, §7, §8
# Setaria viridis [4] = test: Greenhouse postemergence herbicidal activity, SETVI; details: 20 DAT
# Description: as §12, §2, §3, §4, §5, §6, §7, §8
# [5] = sulfentrazone solo 12.5 g ai/ha
compound,measurement,setting,value
"Cc1ccccc1CO[C@@H]1C[C@]2(C(C)C)CC[C@@]1(C)O2 (racemic) [herbicide A, (±)-2-exo-(2-Methylbenzyloxy)-1-methyl-4-isopropyl-7-oxabicyclo[2.2.1]heptane]",herbicidal activity,Avena fatua; herbicide A solo 62.5 g ai/ha,40%
same,herbicidal activity,Avena fatua; herbicide A solo 250 g ai/ha,65%
same,herbicidal activity,Alopecurus myosuroides; herbicide A solo 31.25 g ai/ha,95%
same,herbicidal activity,Alopecurus myosuroides; herbicide A solo 62.5 g ai/ha,98%
same,herbicidal activity,Anthemis arvensis; herbicide A solo 25 g ai/ha,0%
same,herbicidal activity,Anthemis arvensis; herbicide A solo 31.25 g ai/ha,0%
same,herbicidal activity,Anthemis arvensis; herbicide A solo 62.5 g ai/ha,0%
same,herbicidal activity,Anthemis arvensis; herbicide A solo 125 g ai/ha,20%
same,herbicidal activity,Chenopodium album; herbicide A solo 62.5 g ai/ha,45%
same,herbicidal activity,Chenopodium album; herbicide A solo 125 g ai/ha,60%
same,herbicidal activity,Galium aparine; herbicide A solo 31.25 g ai/ha,30%
same,herbicidal activity,Galium aparine; herbicide A solo 62.5 g ai/ha,0%
same,herbicidal activity,Galium aparine; herbicide A solo 125 g ai/ha,0%
same,herbicidal activity,Galium aparine; herbicide A solo 200 g ai/ha,30%
same,herbicidal activity,Galium aparine; herbicide A solo 500 g ai/ha,70%
same,herbicidal activity,Geranium dissectum [1]; herbicide A solo 50 g ai/ha,50%
same,herbicidal activity,Geranium dissectum [1]; herbicide A solo 62.5 g ai/ha,70% and 80%
same,herbicidal activity,Geranium dissectum [1]; herbicide A solo 100 g ai/ha,50%
same,herbicidal activity,Geranium dissectum [1]; herbicide A solo 125 g ai/ha,70%
same,herbicidal activity,Geranium dissectum [1]; herbicide A solo 250 g ai/ha,70%
same,herbicidal activity,Lolium multiflorum; herbicide A solo 25 g ai/ha,50%
same,herbicidal activity,Lolium multiflorum; herbicide A solo 31.25 g ai/ha,75%
same,herbicidal activity,Lolium multiflorum; herbicide A solo 62.5 g ai/ha,85% and 90%
same,herbicidal activity,Lolium multiflorum; herbicide A solo 125 g ai/ha,90%
same,herbicidal activity,Lolium multiflorum; herbicide A solo 500 g ai/ha,95%
same,herbicidal activity,Polygonum convolvulus; herbicide A solo 25 g ai/ha,0%
same,herbicidal activity,Polygonum convolvulus; herbicide A solo 50 g ai/ha,0%
same,herbicidal activity,Polygonum convolvulus; herbicide A solo 62.5 g ai/ha,0%
same,herbicidal activity,Polygonum convolvulus; herbicide A solo 250 g ai/ha,45%
same,herbicidal activity,Sorghum halepense; herbicide A solo 25 g ai/ha,90%
same,herbicidal activity,Sorghum halepense; herbicide A solo 62.5 g ai/ha,90%
same,herbicidal activity,Sorghum halepense; herbicide A solo 125 g ai/ha,95%
same,herbicidal activity,Sorghum halepense; herbicide A solo 250 g ai/ha,98%
same,herbicidal activity,Abutilon theophrasti; herbicide A solo 50 g ai/ha,0%
same,herbicidal activity,Abutilon theophrasti; herbicide A solo 100 g ai/ha,0%
same,herbicidal activity,Setaria viridis [2]; herbicide A solo 25 g ai/ha,75%
same,herbicidal activity,Setaria viridis [2]; herbicide A solo 31.25 g ai/ha,95%
same,herbicidal activity,Stellaria media; herbicide A solo 25 g ai/ha,20%
same,herbicidal activity,Stellaria media; herbicide A solo 50 g ai/ha,20%
same,herbicidal activity,Stellaria media; herbicide A solo 62.5 g ai/ha,45%
same,herbicidal activity,Digitaria sanguinalis; herbicide A solo 62.5 g ai/ha,60%
same,herbicidal activity,Digitaria sanguinalis; herbicide A solo 125 g ai/ha,65%
same,herbicidal activity,Digitaria sanguinalis; herbicide A solo 250 g ai/ha,80%
same,herbicidal activity,Geranium dissectum [3],75%
same,herbicidal activity,Setaria viridis [4]; herbicide A solo 62.5 g ai/ha,40%
same,herbicidal activity,Setaria viridis [4]; herbicide A solo 125 g ai/ha,60%
"Cc1nn(-c2cc(NS(C)(=O)=O)c(Cl)cc2Cl)c(=O)n1C(F)F [sulfentrazone, 2′,4′-dichloro-5′-(4-difluoromethyl-4,5-dihydro-3-methyl-5-oxo-1H-1,2,4-triazol-1-yl)methanesulfonanilide]",herbicidal activity,Alopecurus myosuroides; sulfentrazone solo 25 g ai/ha,35%
same,herbicidal activity,Anthemis arvensis; [5],40%
same,herbicidal activity,Anthemis arvensis; sulfentrazone solo 25 g ai/ha,85%
same,herbicidal activity,Galium aparine; sulfentrazone solo 100 g ai/ha,98%
same,herbicidal activity,Geranium dissectum [1]; sulfentrazone solo 25 g ai/ha,50%
same,herbicidal activity,Lolium multiflorum; [5],0%
same,herbicidal activity,Lolium multiflorum; sulfentrazone solo 100 g ai/ha,80%
same,herbicidal activity,Polygonum convolvulus; [5],20%
same,herbicidal activity,Polygonum convolvulus; sulfentrazone solo 25 g ai/ha,90%
same,herbicidal activity,Sorghum halepense; [5],0%
same,herbicidal activity,Sorghum halepense; sulfentrazone solo 100 g ai/ha,80%
same,herbicidal activity,Abutilon theophrasti; sulfentrazone solo 25 g ai/ha,65%
same,herbicidal activity,Abutilon theophrasti; sulfentrazone solo 50 g ai/ha,65%
same,herbicidal activity,Setaria viridis [2]; [5],0%
same,herbicidal activity,Setaria viridis [2]; sulfentrazone solo 25 g ai/ha,65%
same,herbicidal activity,Stellaria media; [5],0%
same,herbicidal activity,Stellaria media; sulfentrazone solo 25 g ai/ha,20%
same,herbicidal activity,Stellaria media; sulfentrazone solo 50 g ai/ha,40%
